We go through 22 molecules from patent US7935815B2, “Imidazoyl pyridine compounds and salts thereof” (Eisai R&D Management Co., Ltd., priority 2007, dated 2011).

Molecules are shown by their SMILES. Like-named read-outs stand apart in the source and are kept apart here.

What is called IC50 is the concentration at which inhibition is half-maximal.

The experiment has as its system Aβ42 production. The experiment in a line: Quantification of Aβ peptide in culture of neurons from rat fetus brain (Aβ ELISA). The format is cell-based. The note with it: rat primary neuronal culture (embryonic day 18 Wistar rat cerebral cortex), cultured three days after addition of compound, Aβx-42 ELISA of the medium, read-out: Aβ42 production reducing effect IC50. Put shortly:
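Primary cortical neurons from E18 Wistar rat embryos were cultured 4 days on poly-lysine, then treated with compound in Neurobasal/B27 without 2-mercaptoethanol (final DMSO ≤1%) for 3 days. Conditioned medium was assayed undiluted by ELISA for Aβx-42, against DMSO-only controls.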
A general note: An ELISA detects its analyte on a solid surface through an enzyme-linked reagent.

[1] abbreviates: Rattus norvegicus, Neuron, 72 h.

Consider `COc1cc(/C=C/c2nc3n(n2)CCC3c2ccccc2)ccc1-n1cnc(C)c1` (single isomer, unassigned) [Example 141, (−)-2-{(E)-2-[3-methoxy-4-(4-methyl-1H-imidazol-1-yl)phenyl]vinyl}-7-phenyl-6,7-dihydro-5H-pyrrolo[1,2-b][1,2,4]triazole], for which the concentration for half-maximal inhibition (IC50) under setting [1] came to 36 nM.

Regarding `COc1cc(/C=C/c2nc3n(n2)CCC[C@]3(O)c2cc(F)c(F)c(F)c2)c(F)cc1-n1cnc(C)c1` (single isomer, unassigned) [Example 96, (−)-2-{(E)-2-[2-fluoro-5-methoxy-4-(4-methyl-1H-imidazol-1-yl)phenyl]vinyl}-8-(3,4,5-trifluorophenyl)-5,6,7,8-tetrahydro[1,2,4]triazolo[1,5-a]pyridin-8-ol], the IC50 under setting [1] was found to be 63 nM. Consider `COc1cc(/C=C/c2nc3n(n2)C[C@@H](C)C[C@@H]3c2ccc(F)cc2)ccc1-n1cnc(C)c1` [Example 99, (6S,8R)-8-(4-fluorophenyl)-2-{(E)-2-[3-methoxy-4-(4-methyl-1H-imidazol-1-yl)phenyl]vinyl}-6-methyl-5,6,7,8-tetrahydro-[1,2,4]triazolo[1,5-a]pyridine], for which the IC50 under setting [1] came out at 20 nM. Take `COc1nc(/C=C/c2nc3n(n2)CCOC3c2ccccc2C(F)(F)F)ccc1-n1cnc(C)c1` (stereo not shown) [Example 368, 2-{(E)-2-[6-methoxy-5-(4-methyl-1H-imidazol-1-yl)pyridin-2-yl]vinyl}-8-(2-trifluoromethylphenyl)-5,6-dihydro-8H-[1,2,4]triazolo[5,1-c][1,4]oxazine]: the IC50 under setting [1] worked out at 25 nM. `COc1cc(/C=C/c2nc3n(n2)CCC[C@@H]3[C@H]2CCCN2Cc2ccccc2)ccc1-n1cnc(C)c1` (single isomer, unassigned) [Example 133, (−)-8-(1-benzylpyrrolidin-2-yl)-2-{(E)-2-[3-methoxy-4-(4-methyl-1H-imidazol-1-yl)phenyl]vinyl}-5,6,7,8-tetrahydro[1,2,4]triazolo[1,5-a]pyridine]: the IC50 under setting [1] was found to be 65 nM. Regarding `COc1nc(/C=C/c2nc3n(n2)CCC(C)N3c2ccc(F)cc2F)ccc1-n1cnc(C)c1` (stereo not shown) [Example 371, 4-(2,4-difluorophenyl)-2-{(E)-2-[6-methoxy-5-(4-methyl-1H-imidazol-1-yl)pyridin-2-yl]vinyl}-5-methyl-4,5,6,7-tetrahydro-[1,2,4]triazolo[1,5-a]pyrimidine], the concentration for half-maximal inhibition (IC50) under setting [1] turned out to be 27 nM.

In the case of `COc1nc(/C=C/c2nc3n(n2)CCC3c2ccc(F)c(F)c2)ccc1-n1cnc(C)c1` (stereo not shown) [Example 380, 7-(3,4-difluorophenyl)-2-{(E)-2-[6-methoxy-5-(4-methyl-1H-imidazol-1-yl)pyridin-2-yl]vinyl}-6,7-dihydro-5H-pyrrolo[1,2-b][1,2,4]triazole], the IC50 under setting [1] was found to be 29 nM. In the case of `COc1nc(/C=C/c2nc3n(n2)CCC3c2ccccc2)ccc1-n1cnc(C)c1` (stereo not shown) [Example 376, 2-{(E)-2-[6-methoxy-5-(4-methyl-1H-imidazol-1-yl)pyridin-2-yl]vinyl}-7-phenyl-6,7-dihydro-5H-pyrrolo[1,2-b][1,2,4]triazole], the IC50 under setting [1] came to 28 nM. `COc1nc(/C=C/c2nc3n(n2)CCCC3c2cc(F)ccc2C(F)(F)F)ccc1-n1cnc(C)c1` (single isomer, unassigned; (-)) [Example 329, (−)-8-(5-fluoro-2-trifluoromethylphenyl)-2-{(E)-2-[6-methoxy-5-(4-methyl-1H-imidazol-1-yl)pyridin-2-yl]vinyl}-5,6,7,8-tetrahydro-[1,2,4]triazolo[1,5-a]pyridine]: the IC50 under setting [1] amounted to 17 nM. On to `COc1nc(/C=C/c2nc3n(n2)CCC3c2ccccc2C(F)(F)F)ccc1-n1cnc(C)c1` (stereo not shown) [Example 390, 2-{(E)-2-[6-methoxy-5-(4-methyl-1H-imidazol-1-yl)pyridin-2-yl]vinyl}-7-(2-trifluoromethylphenyl)-6,7-dihydro-5H-pyrrolo[1,2-b][1,2,4]triazole], for which the IC50 under setting [1] was found to be 26 nM. On to `COc1cc(/C=C/c2nc3n(n2)CCCC3(O)c2cc(F)cc(F)c2)ccc1-n1cnc(C)c1` (single isomer, unassigned; (+)) [Example 80, (+)-8-(3,5-difluorophenyl)-2-{(E)-2-[3-methoxy-4-(4-methyl-1H-imidazol-1-yl)phenyl]vinyl}-5,6,7,8-tetrahydro[1,2,4]triazolo[1,5-a]pyridin-8-ol], for which the IC50 under setting [1] worked out at 29 nM. With `COc1nc(/C=C/c2nc3n(n2)C(C)CCC3c2ccccc2C(F)(F)F)ccc1-n1cnc(C)c1` (stereo not shown) [Example 362, 2-{(E)-2-[6-methoxy-5-(4-methyl-1H-imidazol-1-yl)pyridin-2-yl]vinyl}-5-methyl-8-(2-trifluoromethylphenyl)-5,6,7,8-tetrahydro-[1,2,4]triazolo[1,5-a]pyridine], the IC50 was 9 nM.

Take `COc1cc(/C=C/c2nc3n(n2)CCCC3c2ccc(F)c(F)c2)cnc1-n1cnc(C)c1` (single isomer, unassigned) [Example 218, (−)-8-(3,4-difluorophenyl)-2-{(E)-2-[5-methoxy-6-(4-methyl-1H-imidazol-1-yl)pyridin-3-yl]vinyl}-5,6,7,8-tetrahydro-[1,2,4]triazolo[1,5-a]pyridine]: under setting [1], the IC50 turned out to be 69 nM. The same measure, in the same setting: then `COc1cc(/C=C/c2nc3n(n2)CCC3c2ccccc2C(F)(F)F)ccc1-n1cnc(C)c1` (single isomer, unassigned; (-)) [Example 317, (−)-2-{(E)-2-[3-methoxy-4-(4-methyl-1H-imidazol-1-yl)phenyl]vinyl}-7-(2-trifluoromethylphenyl)-6,7-dihydro-5H-pyrrolo[1,2-b][1,2,4]triazole], with 25 nM.

Turning to `COCc1cc(F)ccc1C1CCCn2nc(/C=C/c3ccc(-n4cnc(C)c4)c(OC)c3)nc21` (single isomer, unassigned; (-)) [Example 24, (−)-8-(4-fluoro-2-methoxymethylphenyl)-2-{(E)-2-[3-methoxy-4-(4-methyl-1H-imidazol-1-yl)phenyl]vinyl}-5,6,7,8-tetrahydro-[1,2,4]triazolo[1,5-a]pyridine], the IC50 under setting [1] was 12 nM.

Turning to `COc1nc(/C=C/c2nc3n(n2)CCC[C@H]3c2cc(F)c(F)c(F)c2)ccc1-n1cnc(C)c1` (single isomer, unassigned) [Example 169, (−)-2-{(E)-2-[6-methoxy-5-(4-methyl-1H-imidazol-1-yl)pyridin-2-yl]vinyl}-8-(3,4,5-trifluorophenyl)-5,6,7,8-tetrahydro-[1,2,4]triazolo[1,5-a]pyridine], under setting [1], the IC50 was found to be 22 nM. Still for that read-out and setting: then `COc1cc(/C=C/c2nc3n(n2)CCCC3c2cccs2)ccc1-n1cnc(C)c1` (single isomer, unassigned; (-)) [Example 10, (−)-2-{(E)-2-[3-methoxy-4-(4-methyl-1H-imidazol-1-yl)phenyl]vinyl}-8-thiophen-2-yl-5,6,7,8-tetrahydro[1,2,4]triazolo[1,5-a]pyridine], with 33 nM; and `COc1cc(/C=C/c2nc3n(n2)CCC/C3=C\c2ccccc2)ccc1-n1cnc(C)c1` [Example 12, 2-{(E)-2-[3-methoxy-4-(4-methyl-1H-imidazol-1-yl)phenyl]vinyl}-8-[1-phenylmethy-(E)-lidene]-5,6,7,8-tetrahydro[1,2,4]triazolo[1,5-a]pyridine], with 135 nM.

On to `COc1nc(/C=C/c2nc3n(n2)CCCC3c2ccc(F)cc2C(F)(F)F)ccc1-n1cnc(C)c1` (single isomer, unassigned; (-)) [Example 286, (−)-8-(2-trifluoromethyl-4-fluorophenyl)-2-{(E)-2-[6-methoxy-5-(4-methyl-1H-imidazol-1-yl)pyridin-2-yl]vinyl}-5,6,7,8-tetrahydro-[1,2,4]triazolo[1,5-a]pyridine], for which the IC50 under setting [1] came out at 8 nM. With `COc1nc(/C=C/c2nc3n(n2)CCCN3c2ccccc2)ccc1-n1cnc(C)c1` [Example 233, 2-{(E)-2-[6-methoxy-5-(4-methyl-1H-imidazol-1-yl)pyridin-2-yl]vinyl}-4-phenyl-4,5,6,7-tetrahydro-[1,2,4]triazolo[1,5-a]pyrimidine], the IC50 under setting [1] was found to be 42 nM. With `COc1cc(/C=C/c2nc3n(n2)C[C@H](O)C[C@@H]3c2cc(F)c(F)c(F)c2)ccc1-n1cnc(C)c1` [Example 110, (6R,8R)-2-{(E)-2-[3-methoxy-4-(4-methyl-1H-imidazol-1-yl)phenyl]vinyl}-8-(3,4,5-trifluorophenyl)-5,6,7,8-tetrahydro-[1,2,4]triazolo[1,5-a]pyridin-6-ol], under setting [1], the IC50 came out at 33 nM. On to `COc1nc(/C=C/c2nc3n(n2)CCCC3c2cc(F)cc(F)c2)ccc1-n1cnc(C)c1` (stereo not shown) [Example 365, 8-(3,5-difluorophenyl)-2-{(E)-2-[6-methoxy-5-(4-methyl-1H-imidazol-1-yl)pyridin-2-yl]vinyl}-5,6,7,8-tetrahydro-[1,2,4]triazolo[1,5-a]pyridine], for which the IC50 amounted to 21 nM.
